Measurements: patent US4874773A, “3-Aminocarbonyl-1,4-dihydropyridine-5-carboxylic acid compounds, and pharmaceutical composition containing the same” (priority 1985, dated 1989)
pEC50: −log10 of the molar value. “Also recorded” adds a separate entry of the source.

Tests used:
[1] = system: Spontaneously hypertensive male rats; assay: Experiment 1-1 Hypotensive activity (oral, conscious spontaneously hypertensive rats); type: in vivo, rat; settings: for Recovering time / Time for recovering 1/2 of max. hypotension / Time until reaching to max. hypotension / Maximum hypotension: 10 mg/kg oral; for Maximum hypotension: mean blood pressure; for hypotensive activity (in words): Table 4, comparison with nifedipine and nicardipine hydrochloride where stated
Protocol: Spontaneously hypertensive male rats (13-15 week age, one group: 3 rats) were used. […] The rats were fixed in a Howlman cage without fasting, and the femoral arterial pressure was measured by a direct method without anesthesia with a cannula which was previously inserted into the femoral artery of the animal, via a pressure transducer (MPU-0.5, manufactured by Nippon Koden K.K.). The test compounds were orally administered in the form of a suspension in 0.5% methyl cellulose solution in a dose of 10 mg/kg (in some compounds, 3 mg/kg). In the control group, only 0.5% methyl cellulose solution was administered likewise. The blood pressure was measured for 5 hours after the administration of test compounds.

isolated heart = assay: Experiment 2-1 Activity on isolated heart; parameters: species or system Japanese white rabbit; settings: for activation at 3 µg/heart / inhibition at 3 µg/heart, 3 µg/heart / inhibition at 3 µg/heart: Oryctolagus cuniculus, 3 μg/heart; for activation at 3 µg/heart: read-out: Increase of coronary perfusion; for inhibition at 3 µg/heart, 3 µg/heart: read-out: Inhibitory rate of systole; for inhibition at 3 µg/heart: read-out: Reducing rate of heart pulse
Protocol: Japanese white rabbit (weighing 2.2-2.5 kg) was anesthetized by introvenous injection of nembutal (20 mg/kg) and then sacrificed by bleeding from common carotid artery. […] After stabilizing the heart preparation for 90 minutes, the test compound was administered. There were measured the perfusion volume with a drop-counting meter (ET-600G type, manufactured by Nippon Koden K.K.) and the heart pulse and the contractility via a force-displacement transducer (FD pick up, SB-IT type, manufactured by Nippon Koden K.K.) (for measuring heart pulse, an instant pulse meter (AT-601G type, minufactured by Nippon Koden K.K.) being further used).

isolated aorta = assay: Experiment 3 Relaxing activity on the isolated aorta (30 mM KCl contracted); parameters: species or system Japanese white rabbit; settings: for pEC50: Oryctolagus cuniculus, 30 mM KCl contraction, maximum relaxation by papaverine = 100%, read-out: EC50 (concentration for 50% relaxation); for relaxing / vasodilating activity on isolated aorta (in words): Table 8, comparison with nifedipine and nicardipine hydrochloride, etc. where stated

Structure (SMILES) | pEC50 (isolated aorta) | Recovering time [1] | Time for recovering 1/2 of max. hypotension [1] | Time until reaching to max. hypotension [1] | Maximum hypotension [1] | activation at 3 µg/heart (isolated heart) | inhibition at 3 µg/heart, 3 µg/heart (isolated heart) | inhibition at 3 µg/heart (isolated heart) | relaxing / vasodilating activity on isolated aorta (in words) (isolated aorta) | inhibitions on the heart pulse and contactility (in words) (isolated heart; Table 6) | hypotensive activity (in words) [1] | coronary vasodilating activity (in words) (isolated heart; Table 6, comparison with nifedipine and nicardipine hydrochloride, etc.)
CCCCOC(=O)C1=C(C)NC(C)=C(C(=O)NCCC)C1c1cccc([N+](=O)[O-])c1 (stereo not drawn) [Example 68] | 7.00 | 1.0 h | 0.5 h | 15 min | 5 mmHg | 29% | 6% | 11% | – | – | – | –
CCCCCCCCCCOC(=O)C1=C(C)NC(C)=C(C(=O)NC(C)C)C1c1ccccc1[N+](=O)[O-] (stereo not drawn) [Example 52] | 6.38 | 1.0 h | 0.5 h | 15 min | 12 mmHg | 20% | 45% | 15% | – | moderate inhibitions on the heart pulse and contactility | – | –
CC1=C(C(=O)NC(C)C)C(c2ccccc2[N+](=O)[O-])C(C(=O)OC(C)C)=C(C)N1 (stereo not drawn) [Example 45] | 6.77 | 1.5 h | 0.5 h | 15 min | 15 mmHg | 0% | 0% | 0% | – | – | – | –
COC(=O)C1=C(C)NC(C)=C(C(N)=O)C1c1ccccc1[N+](=O)[O-] (stereo not drawn) [C, reference compound] | < 6.00 | 2.0 h | 1.5 h | 15 min | 20 mmHg | 16% | 17% | 7% | – | – | – | –
CCCCOC(=O)C1=C(C)NC(C)=C(C(=O)NC(C)C)C1c1cccc([N+](=O)[O-])c1 (stereo not drawn) [Example 64] | 6.82 | 5.0 h | 2.0 h | 30 min | 57 mmHg | 12% | 0% | 4% | – | – | – | –
CC1=C(C(=O)NC(C)C)C(c2cccc([N+](=O)[O-])c2)C(C(=O)OCC(C)C)=C(C)N1 (stereo not drawn) [Example 65] | 6.89 | 2.5 h | 1.5 h | 30 min | 50 mmHg | 8% | 5% | 8% | – | – | – | –
CCOC(=O)C1=C(C)NC(C)=C(C(=O)N(C)C)C1c1cccc([N+](=O)[O-])c1 (stereo not drawn) [E, reference compound] | < 6.00 | 1.0 h | 0.5 h | 15 min | 5 mmHg | 0% | 0% | 1% | – | – | – | –

The next lines start with results.

pEC50 (isolated aorta) | Structure (SMILES) | Recovering time [1] | Time for recovering 1/2 of max. hypotension [1] | Time until reaching to max. hypotension [1] | Maximum hypotension [1] | activation at 3 µg/heart (isolated heart) | inhibition at 3 µg/heart, 3 µg/heart (isolated heart) | inhibition at 3 µg/heart (isolated heart) | relaxing / vasodilating activity on isolated aorta (in words) (isolated aorta) | inhibitions on the heart pulse and contactility (in words) (isolated heart; Table 6) | hypotensive activity (in words) [1] | coronary vasodilating activity (in words) (isolated heart; Table 6, comparison with nifedipine and nicardipine hydrochloride, etc.)
7.92 | CCCCOC(=O)C1=C(C)NC(C)=C(C(=O)NC(C)C)C1c1ccccc1[N+](=O)[O-] (stereo not drawn) [Example 6, n-butyl 2,6-dimethyl-3-isopropylaminocarbonyl-4-(o-nitrophenyl)-1,4-dihydropyridine-5-carboxylate] | 5.0 h | 3.5 h | 15 min | 57 mmHg | 35% | 25% | 13% | the same or more potent activity | – | – | –
7.70 | COC(=O)C1=C(C)NC(C)=C(C(=O)NC(C)C)C1c1ccccc1[N+](=O)[O-] (stereo not drawn) [Example 5, methyl 2,6-dimethyl-3-isopropylaminocarbonyl-4-(o-nitrophenyl)-1,4-dihydropyridine-5-carboxylate] | > 5.0 h | 5.0 h | 15 min | 70 mmHg | 28% | 15% | 25% | the same or more potent activity | – | the same or more potent activity with longer duration | the same or more potent coronary vasodilating activity with longer duration
6.89 | CC1=C(C(=O)NC(C)C)C(c2ccccc2[N+](=O)[O-])C(C(=O)OCCCC(C)C)=C(C)N1 (stereo not drawn) [Example 51] | > 5.0 h | 3.0 h | 30 min | 40 mmHg | 40% | 30% | 25% | – | – | – | –
7.74 | CCOC(=O)C1=C(C)NC(C)=C(C(=O)NC(C)C)C1c1ccccc1[N+](=O)[O-] (stereo not drawn) [Example 43] | 5.0 h | 2.5 h | 15 min | 68 mmHg | 35% | 35% | 40% | the same or more potent activity | – | – | –
6.24 | CCCCCCCOC(=O)C1=C(C)NC(C)=C(C(=O)NC(C)C)C1c1ccccc1[N+](=O)[O-] (stereo not drawn) [Example 1, n-heptyl 2,6-dimethyl-3-isopropylaminocarbonyl-4-(o-nitrophenyl)-1,4-dihydropyridine-5-carboxylate] | > 5.0 h | > 5.0 h | 30 min | 78 mmHg | 25% | 40% | 15% | somewhat weak vasodilating activity | moderate inhibitions on the heart pulse and contactility | the same or more potent activity with longer duration; also recorded: potent hypotensive activity | –
7.15 | CC1=C(C(=O)NC(C)C)C(c2ccccc2[N+](=O)[O-])C(C(=O)OCC(C)C)=C(C)N1 (stereo not drawn) [Example 46] | 1.5 h | 0.5 h | 15 min | 10 mmHg | 14% | 9% | 3% | the same or more potent activity | – | – | –
7.77 | CCCOC(=O)C1=C(C)NC(C)=C(C(=O)NC(C)C)C1c1ccccc1[N+](=O)[O-] (stereo not drawn) [Example 44] | 4.0 h | 2.5 h | 15 min | 60 mmHg | 30% | 20% | 16% | the same or more potent activity | – | – | –
